According to patent US20190264228A1, “TRANSFECTION METHOD COMPRISING NONVIRAL GENE DELIVERY SYSTEMS” (priority 2016, published 2019):
Where two headings read alike, the source gives them in different places.

Test system: HeLa cells
Assay: Lipofection of HeLa cells with pCMV-luc / Rotifect Plus; transfection efficiency by luciferase reporter assay
Format: cell-based
Details: for Results in RLU (averages of three tests): inhibitors added 2 hours before and during transfection, luciferase assay after 24 hours; for Results in RLU/μg protein (averages): carried out analogously with Example 1
Method: The transfection efficiency was measured indirectly using a luciferase enzyme, which was coded by the inserted nucleic acid. This is a reporter gene system. These are established systems for detecting the transfection efficiency. Thus, the greater the amount of luciferase which can be detected in a culture vessel after lysis of the transfected cells, the greater the transfection efficiency. The amount of luciferase is detected by way of an enzyme substrate reaction in which a light quantum is released. These light quanta can be measured by suitable measurement devices known as luminometers. Since the number of light quanta measured is dependent in particular on the time interval in which the measurement took place, this light quantum amount is also denoted as “relative light units”. For comparative studies, the measurement conditions must therefore be identical. […] In both examples, for the treatment using the IKKe/TBK1 inhibitor and an inhibitor for a nucleic-acid-detecting toll-like receptor a significant improvement can be observed, and also cannot be explained merely by simple addition of the individual rates of increase for TKKe/TBK1 inhibitor and an inhibitor for a nucleic-acid-detecting toll-like receptor. This is thus clearly a synergistic effect. The following was used as general material: • 1. HeLa cells; ATTC CCL-2 • 2. Rotifect Plus, Carl Roth; Cat. No.: CL21.2 • 3. 48-well plates; Cellstar; Greiner BioOne; Cat. No.: 677180 • 4. DMEM; high-glucose; Biowest, w/stable glutamine/sodium pyruvate, Cat. No.: L103-500 • 5. Serum FBS Gold; PAN Biotech; Batch No. P130914: Cat. No.: P40-37500 • 6. pCMV-luc, Plasmid Factory, Cat. No.: PF461 • 7. Luciferase Assay Kit, Promega • 8. Dimethyl sulphoxide (DMSO for molecular biology), Fluka; Cat. No.: 41639 • 9. […] No.: 204001 • 10. […] Fluka; Cat. No.: C6628 • 11. […] TCI: Cat. No.: Q0056 The first embodiment, shown in FIG. 1, relates to lipofection of HeLa cells with a conventional commercial transfection reagent (Rotifect Plus), which were treated with the inhibitor BX795 for IKKe and TBK1 and with chloroquine as an inhibitor for TLR9 before and during the transfection. The lipofection of the HeLa cells was carried out over a 3-day period: […] HeLa cells were seeded into a 48-well plate. A cell count of 1*10^5 cells per well was plated in 250 μl complete DMEM medium (10% FCS). This was followed by incubation in a CO2 incubator (10%) for 24 hours. […] This was followed by incubation in a CO2 incubator (10%) for 24 hours. The efficiency of the transfection was determined using a luciferase assay kit. The assay was carried out in accordance with the manufacturer's instructions. The second embodiment, shown in FIG. 2, relates to lipofection of HeLa cells, which were treated with the inhibitor BX795 for IKKe and TBK1 and with quinacrine as an inhibitor for TLR9 before and during the transfection. The lipofection of the HeLa was carried out analogously with Example 1.

[1] = Example 1, FIG. 1, HeLa cells, BX795 0.5 μM, chloroquine 10 μM
[2] = Example 1, HeLa cells, BX795 0.5 μM, chloroquine 10 μM
[3] = Example 2, FIG. 2, HeLa cells, BX795 0.5 μM, quinacrine 2.5 μM
[4] = Example 2, HeLa cells, BX795 0.5 μM, quinacrine 2.5 μM
[5] = Homo sapiens, HeLa, Example 2, FIG. 2, HeLa cells, BX795 0.5 μM, quinacrine 2.5 μM, read-out: transfection efficiency normalised to transfection without inhibitors (ST = 100%)

Structure (SMILES)	Results in RLU (averages of three tests) [1] [RLU]	increase over standard transfection [2] [%]	Results in RLU/μg protein (averages) [3] [RLU/μg protein]	increase over standard transfection [4] [%]	activity at 0.5 µM (Homo sapiens, HeLa, Example 1, FIG. 1, HeLa cells, BX795 0.5 μM, chloroquine 10 μM, read-out: transfection efficiency normalised to transfection without inhibitors (ST = 100%)) [%]	activity at 0.5 µM [5] [%]	activity at 10 µM (Homo sapiens, HeLa, read-out: transfection efficiency normalised to transfection without inhibitors (ST = 100%)) [%]	activity at 2.5 µM [5] [%]
O=C(NCCCNc1nc(Nc2cccc(NC(=O)N3CCCC3)c2)ncc1I)c1cccs1 [BX795]	50282	256	27260	285	356	141	–	–
CCN(CC)CCCC(C)Nc1ccnc2cc(Cl)ccc12 (stereo not drawn) [Chloroquine]	46817	19	–	–	–	–	119	–
CCN(CC)CCCC(C)Nc1c2ccc(Cl)cc2nc2ccc(OC)cc12 (stereo not drawn) [Quinacrine, quinacrine]	–	–	73924	41	–	–	–	385
